In DBAASP:
Values after ≈ are worked out from the molar mass of the structure shown.

Columns and labels:
Assay in all cases: ≥ marks a high value that may be exact or a test limit, other limits are often not marked, values filed in µg/mL are converted to µM
[1] = system: Staphylococcus aureus
[2] = system: Bacillus cereus
[3] = system: Escherichia coli
[4] = system: Escherichia coli ATCC 25922
[5] = system: Staphylococcus aureus ATCC 29213
[6] = system: Escherichia coli UB1005
[7] = system: Staphylococcus aureus ATCC 25923
[8] = system: Staphylococcus epidermidis ATCC 12228
[9] = system: Salmonella enterica subsp. enterica serovar Typhimurium C77-31
[10] = system: Pseudomonas aeruginosa ATCC 27853
[11] = system: Escherichia coli DH5alpha
[12] = system: Bacillus subtilis
[13] = system: Candida albicans
[14] = system: Acinetobacter baumannii
[15] = system: Acinetobacter baumannii ATCC 19606

SMILES | MIC [2] [µM] | MIC [3] [µM] | MIC [12] [µM] | other results
CC(C)C[C@H](NC(=O)[C@@H](N)Cc1ccccc1)C(=O)NCC(=O)N[C@H](C(=O)N[C@H](C(=O)N[C@@H](Cc1ccccc1)C(=O)N[C@@H](CCCCN)C(=O)NCC(=O)N[C@@H](C)C(=O)N[C@@H](CO)C(=O)N[C@@H](CCCCN)C(=O)N[C@H](C(=O)N[C@@H](Cc1ccccc1)C(=O)N1CCC[C@H]1C(=O)N[C@@H](C)C(=O)N[C@H](C(=O)N[C@H](C(=O)NCC(=O)N[C@@H](CCCCN)C(=O)N[C@H](C(=O)O)C(C)C)C(C)C)C(C)C)C(C)C)C(C)C)C(C)C [FLGVVFKGASKVFPAVVGKV] | ≥ 125 | > 125 | – | MIC [1]: > 125 µM
CC[C@H](C)[C@H](NC(=O)[C@H](C)NC(=O)[C@H](CCCCN)NC(=O)[C@H](CC(C)C)NC(=O)[C@@H](NC(=O)[C@H](CCCCN)NC(=O)CNC(=O)[C@@H](NC(=O)[C@H](CCCCN)NC(=O)[C@H](CCCCN)NC(=O)[C@H](CC(C)C)NC(=O)[C@H](CCCN=C(N)N)NC(=O)[C@H](CCCCN)NC(=O)[C@H](CCCN=C(N)N)NC(=O)[C@@H](NC(=O)[C@H](CCCCN)NC(=O)[C@H](CCCCN)NC(=O)[C@H](CCCN=C(N)N)NC(=O)[C@H](CC(C)C)NC(=O)[C@H](CCCN=C(N)N)NC(=O)[C@H](CCCN=C(N)N)NC(=O)[C@H](Cc1ccccc1)NC(=O)[C@H](CCCN=C(N)N)NC(=O)CN)[C@@H](C)O)[C@@H](C)CC)C(C)C)C(N)=O [GRFRRLRKKTRKRLKKIGKVLKAI] | – | – | – | MIC [4]: 16 µM (≈ 47.2 µg/mL); MIC [5]: 128 µM (≈ 378 µg/mL); MIC [6]: 16 µM (≈ 47.2 µg/mL); MIC [7]: 128 µM (≈ 378 µg/mL); MIC [8]: 128 µM (≈ 378 µg/mL); MIC [9]: ≥ 128 µM
CC[C@H](C)[C@H](NC(=O)[C@H](Cc1ccccc1)NC(=O)[C@@H](NC(=O)[C@H](Cc1ccc(O)cc1)NC(=O)[C@H](CCCN=C(N)N)NC(=O)[C@H](CCCCN)NC(=O)[C@H](CCCN=C(N)N)NC(=O)[C@H](CCCCN)NC(=O)[C@H](Cc1c[nH]c2ccccc12)NC(=O)[C@H](CC(C)C)NC(=O)[C@@H](NC(=O)[C@@H](N)Cc1ccc(O)cc1)C(C)C)[C@@H](C)CC)C(=O)O [YVLWKRKRYIFI] | – | – | 3.56 (≈ 6 µg/mL) | MIC [10]: 8.9 µM (≈ 15 µg/mL); MIC [11]: 3.56 µM (≈ 6 µg/mL); MIC [7]: 1.78 µM (≈ 3 µg/mL)
CC(C)C[C@H](NC(=O)[C@@H](N)Cc1ccccc1)C(=O)N1CCC[C@H]1C(=O)N1CCC[C@H]1C(=O)N[C@@H](CO)C(=O)N1CCC[C@H]1C(=O)N[C@@H](Cc1c[nH]c2ccccc12)C(=O)N[C@@H](CCCCN)C(=O)N[C@@H](CCC(=O)O)C(=O)N[C@H](C(=O)N[C@@H](Cc1ccccc1)C(=O)N[C@@H](CCCN=C(N)N)C(=O)N[C@H](C(=O)N[C@@H](CO)C(=O)O)[C@@H](C)O)[C@@H](C)O [FLPPSPWKETFRTS] | – | 25.1 (≈ 42.5 µg/mL) | ≥ 50.2 | MIC [1]: 12.6 µM (≈ 21.3 µg/mL); MIC [13]: 12.6 µM (≈ 21.3 µg/mL)
CC[C@H](C)[C@H](N)C(=O)N[C@@H](CC(N)=O)C(=O)N[C@@H](Cc1c[nH]c2ccccc12)C(=O)N[C@@H](CCCCN)C(=O)N[C@@H](CCCCN)C(=O)N[C@H](C(=O)N[C@@H](C)C(=O)N[C@@H](CO)C(=O)N[C@H](C(=O)NCC(=O)N[C@@H](CCCCN)C(=O)N[C@@H](CCC(=O)O)C(=O)N[C@H](C(N)=O)C(C)C)[C@@H](C)CC)[C@@H](C)CC [INWKKIASIGKEV] | – | 100 (≈ 148 µg/mL) | ≥ 100 | –
C[C@H](NC(=O)[C@@H]1CCCN1C(=O)CNC(=O)[C@H](CO)NC(=O)[C@H](CCCN=C(N)N)NC(=O)CNC(=O)[C@@H](NC(=O)[C@@H](N)Cc1cnc[nH]1)[C@@H](C)O)C(=O)N[C@H](C(=O)NCC(=O)N[C@@H](Cc1cnc[nH]1)C(=O)N[C@@H](CO)C(=O)NCC(=O)N[C@@H](Cc1cnc[nH]1)C(=O)N[C@@H](CO)C(=O)N[C@@H](CO)C(=O)N[C@H](C(=O)N[C@@H](Cc1cnc[nH]1)C(=O)NCC(=O)N[C@@H](CO)C(=O)O)[C@@H](C)O)[C@@H](C)O [HTGRSGPATGHSGHSSTHGS] | ≥ 134 | > 134 | – | –
CC[C@H](C)[C@H](NC(=O)[C@H](CCCNC(=N)N)NC(=O)[C@@H](NC(=O)[C@@H](NC(=O)[C@@H]1CCCN1C(=O)[C@@H](NC(=O)[C@@H](NC(=O)[C@@H](NC(=O)[C@@H]1CCCN1C(=O)CNC(=O)[C@H](Cc1ccc(O)cc1)NC(=O)[C@H](CCCCN)NC(=O)[C@H](CCCCN)NC(=O)[C@H](Cc1c[nH]c2ccccc12)NC(=O)[C@H](C)NC(=O)[C@H](CCCNC(=N)N)NC(=O)[C@H](CC(C)C)NC(=O)[C@@H](NC(=O)[C@H](CCCCN)NC(=O)[C@H](CCCNC(=N)N)NC(=O)CNC(=O)[C@H](CC(C)C)NC(=O)[C@H](CO)NC(=O)[C@H](CCCNC(=N)N)NC(=O)[C@H](CC(C)C)NC(=O)CNC(=O)CN)[C@@H](C)CC)[C@@H](C)CC)[C@@H](C)CC)C(C)C)[C@@H](C)CC)[C@@H](C)CC)C(N)=O [GGLRSLGRKILRAWKKYGPIIVPIIRI] | – | – | – | MIC [14]: 2.3 µM (≈ 7.07 µg/mL); MIC [15]: 1.63 µM (≈ 5 µg/mL)
CC[C@H](C)[C@H](NC(=O)[C@@H](NC(=O)[C@@H](NC(=O)[C@H](CO)NC(=O)[C@@H]1CCCN1C(=O)[C@H](CCCCN)NC(=O)CNC(=O)CNC(=O)[C@H](CCCCN)NC(=O)[C@@H](NC(=O)[C@H](CO)NC(=O)[C@H](Cc1ccccc1)NC(=O)[C@@H](N)C(C)C)C(C)C)C(C)C)C(C)C)C(=O)N[C@@H](CCCCN)C(=O)N[C@H](C(=O)N[C@H](C(=O)N[C@H](C(=O)N[C@@H](C)C(=O)N[C@@H](CO)C(=O)N[C@H](C(=O)O)[C@@H](C)O)C(C)C)C(C)C)C(C)C [VFSVKGGKPSVVIKVVVAST] | ≥ 128 | > 128 | – | –
CC(C)C[C@H](NC(=O)[C@H](CCC(=O)O)NC(=O)[C@H](CC(C)C)NC(=O)[C@H](CO)NC(=O)[C@H](CC(=O)O)NC(=O)[C@H](Cc1ccc(O)cc1)NC(=O)[C@H](CCCN=C(N)N)NC(=O)[C@H](Cc1ccc(O)cc1)NC(=O)CNC(=O)[C@H](Cc1ccccc1)NC(=O)[C@H](CCCCN)NC(=O)[C@H](CCCCN)NC(=O)[C@H](Cc1ccc(O)cc1)NC(=O)[C@H](CC(=O)O)NC(=O)[C@H](Cc1ccccc1)NC(=O)[C@@H](NC(=O)[C@@H](N)CC(=O)O)[C@@H](C)O)C(=O)N[C@@H](CCC(=O)O)C(=O)NCC(=O)N[C@@H](CCCN=C(N)N)C(=O)O [DTFDYKKFGYRYDSLELEGR] | – | – | 0.548 (≈ 1.37 µg/mL) | –
CC(C)C[C@H](NC(=O)CNC(=O)[C@H](CCCCN)NC(=O)[C@@H](NC(=O)[C@H](CC(C)C)NC(=O)[C@@H](NC(=O)[C@H](Cc1ccccc1)NC(=O)[C@H](Cc1ccccc1)NC(=O)[C@H](CCCCN)NC(=O)[C@H](CCCCN)NC(=O)[C@H](C)NC(=O)[C@@H](NC(=O)[C@@H](N)C(C)C)C(C)C)C(C)C)C(C)C)C(=O)N[C@@H](C)C(=O)N1CCC[C@H]1C(=O)N[C@H](C(=O)N[C@@H](CC(C)C)C(=O)N[C@@H](CO)C(=O)N1CCC[C@H]1C(=O)N[C@@H](CO)C(=O)O)C(C)C [VVAKKFFVLVKGLAPVLSPS] | ≥ 122 | > 122 | – | –
CC[C@H](C)[C@H](NC(=O)[C@H](CCSC)NC(=O)[C@@H](NC(=O)[C@H](CCCCN)NC(=O)[C@H](CO)NC(=O)CNC(=O)[C@@H](NC(=O)[C@@H](NC(=O)[C@H](CCCCN)NC(=O)[C@@H](NC(=O)[C@@H]1CCCN1C(=O)[C@H](CO)NC(=O)[C@H](CCCCN)NC(=O)[C@H](CC(C)C)NC(=O)[C@@H]1CCCN1C(=O)[C@@H](NC(=O)[C@H](CCCN=C(N)N)NC(=O)[C@@H](N)CO)C(C)C)C(C)C)[C@@H](C)CC)C(C)C)C(C)C)C(=O)N[C@@H](Cc1ccccc1)C(=O)N[C@@H](C)C(=O)O [SRVPLKSPVKIVGSKVMIFA] | ≥ 119 | > 119 | – | –
CC[C@H](C)[C@H](NC(=O)CN)C(=O)N[C@@H](Cc1ccccc1)C(=O)NCC(=O)N[C@@H](CCCCN)C(=O)N[C@H](C(=O)N[C@@H](CC(C)C)C(=O)NCC(=O)N[C@H](C(=O)NCC(=O)N[C@@H](CCCCN)C(=O)N[C@@H](CCCCN)C(=O)N[C@H](C(=O)N[C@@H](CC(C)C)C(=O)N[C@H]1CSSC[C@@H](C(=O)O)NC(=O)[C@H](C(C)C)NC(=O)CNC(=O)[C@H](CO)NC(=O)[C@H](CC(C)C)NC(=O)CNC1=O)C(C)C)C(C)C)[C@@H](C)CC [GIFGKILGVGKKVLCGLSGVC] | – | 11.5 (≈ 23.6 µg/mL) | 2.88 (≈ 5.89 µg/mL) | MIC [1]: 2.88 µM (≈ 5.89 µg/mL); MIC [13]: 5.76 µM (≈ 11.8 µg/mL)
CC[C@H](C)[C@H](NC(=O)[C@H](CO)NC(=O)[C@H](CCC(N)=O)NC(=O)[C@H](CC(C)C)NC(=O)[C@H](C)NC(=O)[C@H](CC(=O)O)NC(=O)[C@H](CCCCN)NC(=O)[C@H](CCCCN)NC(=O)[C@H](CC(C)C)NC(=O)CN)C(=O)N[C@H](C(=O)N[C@@H](CCCCN)C(=O)N[C@@H](CCCCN)C(=O)N[C@@H](C)C(=O)N[C@@H](CCC(N)=O)C(=O)N[C@@H](CC(C)C)C(=O)N[C@@H](C)C(=O)N[C@@H](C)C(=O)N[C@@H](CCSC)C(=O)NCC(=O)O)C(C)C [GLKKDALQSIVKKAQLAAMG] | ≥ 124 | > 124 | – | –
